Values quoted from earlier work in patent publication US20150250887A1, “METHOD OF PREPARING RESIN TINCTURES” (JALEVA PHARMACEUTICALS, LLC, priority 2012, published 2015).

Test system: not given
Details: pH 7.4

Row | Compound | log D
1 | C[C@]12CC[C@H]3[C@@H](CCC4=CC(=O)CC[C@@]43C)[C@@H]1CC[C@@H]2O [testosterone] | 3.18
2 | CN1CCCC1c1cccnc1 (stereo not shown) [nicotine] | −0.62

Same assay, conditions: pH about 7.4

Row | Compound | log D
3 | Cc1nccn1CC1CCc2c(c3ccccc3n2C)C1=O (stereo not shown) [ondansetron] | 1.2
4 | O=C(O)Cc1ccccc1Nc1c(Cl)cccc1Cl [diclofenac] | 1.44
5 | CNS(=O)(=O)CCc1ccc2[nH]cc(C3CCN(C)CC3)c2c1 [naratriptan] | −0.85
6 | CCCc1nc(C)c2c(=O)[nH]c(-c3cc(S(=O)(=O)N4CCN(CC)CC4)ccc3OCC)nn12 [vardenafil] | 3.71
7 | CC1=C(/C=C/C(C)=C/C=C/C(C)=C/C(=O)O)C(C)(C)CCC1 [tretinoin] | 4.19
8 | CCCc1nn(C)c2c(=O)[nH]c(-c3cc(S(=O)(=O)N4CCN(C)CC4)ccc3OCC)nc12 [sildenafil] | 2.26

Test system: skin
Details: not given

Row | Compound | skin irritant properties
9 | CC(=O)O.CC(=O)O.NC(=N\CCCCCC/N=C(N)/N=C(\N)Nc1ccc(Cl)cc1)/N=C(\N)Nc1ccc(Cl)cc1 [chlorhexidine acetate] | strong skin irritant
10 | N=C(NCCCCCCNC(=N)NC(=N)Nc1ccc(Cl)cc1)NC(=N)Nc1ccc(Cl)cc1.O=C(O)[C@H](O)[C@@H](O)[C@H](O)[C@H](O)CO.O=C(O)[C@H](O)[C@@H](O)[C@H](O)[C@H](O)CO [chlorhexidine gluconate] | does not exhibit as strong irritant properties
